Data taken from ChEMBL document CHEMBL1201862, “PubChem BioAssay data set” (2004).
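The compound was tested at five concentrations on cells cultured in 96-well plates, with a 48-hour exposure period. GI50 marks 50% less growth.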 The source made the active and inactive calls. Rule as the data show it: active = GI50 up to about 1.1 µM and inactive = higher.

Experiments:
Test in all cases: NCI tumour cell line growth inhibition, 48 h
OVCAR-3 = test system: OVCAR-3
HOP-92 = test system: HOP-92
NCI/ADR-RES = test system: NCI/ADR-RES
IGROV-1 = test system: IGROV-1
MCF7 = test system: MCF7
PC-3 = test system: PC-3
SK-MEL-2 = test system: SK-MEL-2
DU-145 = test system: DU-145
SF-268 = test system: SF-268
HOP-62 = test system: HOP-62
EKVX = test system: EKVX
SK-MEL-28 = test system: SK-MEL-28
LOX IMVI = test system: LOX IMVI
RPMI-8226 = test system: RPMI-8226
HCT-116 = test system: HCT-116
A498 = test system: A498
HT-29 = test system: HT-29
MDA-MB-231 = test system: MDA-MB-231
CCRF-CEM = test system: CCRF-CEM

Row | Compound | GI50 (OVCAR-3) | GI50 (HOP-92) | GI50 (NCI/ADR-RES) | GI50 (IGROV-1) | GI50 (MCF7) | GI50 (PC-3) | GI50 (SK-MEL-2) | GI50 (DU-145) | GI50 (SF-268) | GI50 (HOP-62) | GI50 (EKVX) | GI50 (SK-MEL-28) | GI50 (LOX IMVI) | GI50 (RPMI-8226) | GI50 (HCT-116) | GI50 (A498) | GI50 (HT-29) | GI50 (MDA-MB-231) | GI50 (CCRF-CEM)
1 | Nc1ncnc2c1ncn2CCCCC(=O)O | > 100 µM (inactive) | > 100 µM (inactive) | > 100 µM (inactive) | > 100 µM (inactive) | > 100 µM (inactive) | > 100 µM (inactive) | > 100 µM (inactive) | > 100 µM (inactive) | > 100 µM (inactive) | > 100 µM (inactive) | > 100 µM (inactive) | > 100 µM (inactive) | > 100 µM (inactive) | > 100 µM (inactive) | > 100 µM (inactive) | > 100 µM (inactive) | > 100 µM (inactive) | > 100 µM (inactive) | 
2 | CC1(C)CC(=O)C(C(c2cccc(O)c2O)C2C(=O)CC(C)(C)CC2=O)C(=O)C1 | 97.7 µM (inactive) | 49.3 µM (inactive) | > 100 µM (inactive) | 43.9 µM (inactive) | 49.2 µM (inactive) | > 100 µM (inactive) | 76.6 µM (inactive) | > 100 µM (inactive) | 73.8 µM (inactive) | > 100 µM (inactive) | > 100 µM (inactive) | > 100 µM (inactive) | 81.8 µM (inactive) | > 100 µM (inactive) | > 100 µM (inactive) | > 100 µM (inactive) | > 100 µM (inactive) | > 100 µM (inactive) | 20.1 µM (inactive)
3 | [N-]=[N+]=NI1OC(=O)c2ccccc21 | > 100 µM (inactive) | 44.9 µM (inactive) | > 100 µM (inactive) | > 100 µM (inactive) | 93.5 µM (inactive) | > 100 µM (inactive) | > 100 µM (inactive) | > 100 µM (inactive) | 73.6 µM (inactive) | > 100 µM (inactive) | > 100 µM (inactive) | 47.2 µM (inactive) | 90.2 µM (inactive) | 24 µM (inactive) | > 100 µM (inactive) | > 100 µM (inactive) | > 100 µM (inactive) | > 100 µM (inactive) | 37.9 µM (inactive)
4 | COC(=O)/C=C/C1(O)C=CC(=O)C=C1 | 2.17 µM (inactive) | 3.66 µM (inactive) | 3.5 µM (inactive) | 2.69 µM (inactive) | 2.87 µM (inactive) | 2.34 µM (inactive) | 6.32 µM (inactive) | 2.59 µM (inactive) | 2.22 µM (inactive) | 4.37 µM (inactive) | 3.61 µM (inactive) | 3.44 µM (inactive) | 2.07 µM (inactive) | 2.45 µM (inactive) | 1.88 µM (inactive) | 26.9 µM (inactive) | 2.51 µM (inactive) | 2.95 µM (inactive) | 1.77 µM (inactive)
5 | COc1ccccc1C[C@@H]1OC2(C=CC(=O)CC2SC(=O)c2ccccc2)O[C@H]1Cc1ccccc1OC (stereo partly specified) | 1.59 µM (inactive) | 1.64 µM (inactive) | 1.46 µM (inactive) | 1.42 µM (inactive) | 0.363 µM (active) | 1.88 µM (inactive) | 1.71 µM (inactive) | 3.78 µM (inactive) | 1.02 µM (active) | 1.35 µM (inactive) |  | 1.75 µM (inactive) | 0.582 µM (active) | 0.3 µM (active) | 0.241 µM (active) | 2.46 µM (inactive) | 1.65 µM (inactive) | 2.64 µM (inactive) | 0.294 µM (active)
6 | COC(=O)[C@@H]1Cc2cc(O)c(O)cc2C2(CCN(C)CC2)O1 | > 10 µM (inactive) | > 10 µM (inactive) | > 10 µM (inactive) | > 10 µM (inactive) | > 10 µM (inactive) | > 10 µM (inactive) | > 10 µM (inactive) | > 10 µM (inactive) | > 10 µM (inactive) | > 10 µM (inactive) | > 10 µM (inactive) | > 10 µM (inactive) | > 10 µM (inactive) | > 10 µM (inactive) | > 10 µM (inactive) | > 10 µM (inactive) | > 10 µM (inactive) | > 10 µM (inactive) | > 10 µM (inactive)
7 | CC(=O)OC[C@H]1On2nnnc2[C@H](OC(C)=O)[C@@H](OC(C)=O)[C@@H]1OC(C)=O | > 100 µM (inactive) | > 100 µM (inactive) | 91.8 µM (inactive) | > 100 µM (inactive) | > 100 µM (inactive) | > 100 µM (inactive) | > 100 µM (inactive) | > 100 µM (inactive) | > 100 µM (inactive) | > 100 µM (inactive) | > 100 µM (inactive) | > 100 µM (inactive) | > 100 µM (inactive) | > 100 µM (inactive) | > 100 µM (inactive) | > 100 µM (inactive) | > 100 µM (inactive) | > 100 µM (inactive) | > 100 µM (inactive)
8 | C=CC(Cl)(CBr)CCC(Br)C(C)(C)Cl (stereo unspecified) | 17.5 µM (inactive) | 19.5 µM (inactive) | 22.1 µM (inactive) | 13 µM (inactive) | 6.92 µM (inactive) | 17.5 µM (inactive) | 19.2 µM (inactive) | 19.7 µM (inactive) | 20.8 µM (inactive) | 16.3 µM (inactive) | 19.8 µM (inactive) | 17.3 µM (inactive) |  | 7.38 µM (inactive) | 12.8 µM (inactive) | 14.1 µM (inactive) | 15.3 µM (inactive) | 14.5 µM (inactive) | 1.89 µM (inactive)
9 | Cc1n[nH]c(=O)c2cc(-c3ccccc3)[nH]c12 | 54.1 µM (inactive) | > 100 µM (inactive) | 57.8 µM (inactive) | 70.6 µM (inactive) | 30.8 µM (inactive) | 34.5 µM (inactive) | 31 µM (inactive) | 94.8 µM (inactive) | 59.7 µM (inactive) | > 100 µM (inactive) | 36.6 µM (inactive) |  | 58.7 µM (inactive) | 37.6 µM (inactive) | 52.6 µM (inactive) | 25.9 µM (inactive) | 33.2 µM (inactive) | 40.8 µM (inactive) | 48.2 µM (inactive)
10 | COc1cc(-c2oc3ccccc3c(=O)c2O)cc(OC)c1OC | 4.28 µM (inactive) | 4.06 µM (inactive) | 4.32 µM (inactive) | 6.9 µM (inactive) | > 100 µM (inactive) | 11.3 µM (inactive) | > 100 µM (inactive) | > 31.6 µM (inactive) | 11.7 µM (inactive) | 6.04 µM (inactive) | 25.3 µM (inactive) | > 100 µM (inactive) | 6.24 µM (inactive) | 3.43 µM (inactive) | 10.3 µM (inactive) | 22 µM (inactive) | > 74.8 µM (inactive) | 42.4 µM (inactive) | 3.32 µM (inactive)
11 | CCOc1cccc(/C=N\c2ccccc2SSc2ccccc2/N=C\c2cccc(OCC)c2O)c1O | 2.62 µM (inactive) | 11.5 µM (inactive) | 3.55 µM (inactive) | 2.92 µM (inactive) | 0.326 µM (active) | 3.17 µM (inactive) | 16.5 µM (inactive) | 16.6 µM (inactive) | 4.22 µM (inactive) | 6.92 µM (inactive) | 3.86 µM (inactive) | 12.4 µM (inactive) | 4.47 µM (inactive) | 3.73 µM (inactive) | 1.73 µM (inactive) | 24.2 µM (inactive) | 14.6 µM (inactive) | 8.95 µM (inactive) | 3.32 µM (inactive)
12 | ClCCN(CCCl)c1ccc(CNCCCNCc2ccc(N(CCCl)CCCl)cc2)cc1 | 2.69 µM (inactive) | 4.78 µM (inactive) | 6.15 µM (inactive) | 1.92 µM (inactive) | 1.21 µM (inactive) | 5.92 µM (inactive) | 2.17 µM (inactive) | 2.37 µM (inactive) | 1.43 µM (inactive) | 2.54 µM (inactive) | 2.69 µM (inactive) | 1.69 µM (inactive) | 1.65 µM (inactive) | 3.52 µM (inactive) | 4.13 µM (inactive) | 7.24 µM (inactive) | 1.87 µM (inactive) | 2.7 µM (inactive) | 2.78 µM (inactive)
13 | CN(C)CCC(C#N)(c1ccccc1)c1ccccc1 | > 100 µM (inactive) | 12.3 µM (inactive) | 93.5 µM (inactive) | 55.1 µM (inactive) | 94.4 µM (inactive) | 87.3 µM (inactive) | > 100 µM (inactive) | > 100 µM (inactive) | > 100 µM (inactive) | > 100 µM (inactive) | > 100 µM (inactive) | 23.1 µM (inactive) |  | 24.9 µM (inactive) | 72.6 µM (inactive) | 71.3 µM (inactive) | 33.7 µM (inactive) | 47.5 µM (inactive) | 
14 | O=c1c(C(c2cccnc2)c2c(O)oc3cc(O)ccc3c2=O)c(O)oc2cc(O)ccc12 | > 100 µM (inactive) | > 100 µM (inactive) | > 100 µM (inactive) | > 100 µM (inactive) | > 100 µM (inactive) | > 100 µM (inactive) | > 100 µM (inactive) | > 100 µM (inactive) | > 100 µM (inactive) | > 100 µM (inactive) | > 100 µM (inactive) | > 100 µM (inactive) | > 100 µM (inactive) | > 100 µM (inactive) | > 100 µM (inactive) | > 100 µM (inactive) | > 100 µM (inactive) | > 100 µM (inactive) | 
15 | O=C(O)c1c(Cl)c(Cl)c(Cl)c(Cl)c1C(=O)Nc1ccc2cn[nH]c2c1 | 65.2 µM (inactive) | > 100 µM (inactive) | > 100 µM (inactive) | > 100 µM (inactive) | 92.7 µM (inactive) | > 100 µM (inactive) | > 100 µM (inactive) | 48 µM (inactive) | > 100 µM (inactive) | 59.6 µM (inactive) | > 100 µM (inactive) | > 100 µM (inactive) |  | 37.4 µM (inactive) | > 100 µM (inactive) | > 100 µM (inactive) | > 100 µM (inactive) | > 100 µM (inactive) | 
